According to the NIST ThermoML archive (doi:10.1021/je200922s):
Numbers after ± are expanded uncertainties.

Experiment: xn = mol fraction of the nth substance listed
Conditions: 101 kPa, Liquid; for viscosity: Capillary tube (Ostwald / Ubbelohde) method; for mass density: Vibrating tube method

With `CCn1cc[n+](C)c1.O=S(=O)([N-]S(=O)(=O)C(F)(F)F)C(F)(F)F` + CN1CCCC1=O the viscosity (293.15 K, x1 = 0.0978) was 3.344 ± 0.14 mPa·s, the viscosity (293.15 K, x1 = 0.1979) was 5.561 ± 0.23 mPa·s and the viscosity (293.15 K, x1 = 0.2957) was 8.637 ± 0.35 mPa·s. It also gave a viscosity (293.15 K, x1 = 0.395) of 12.04 ± 0.49 mPa·s, a viscosity (293.15 K, x1 = 0.493) of 15.84 ± 0.65 mPa·s and a viscosity (293.15 K, x1 = 0.5893) of 20.06 ± 0.82 mPa·s. For the same compound, the viscosity (293.15 K, x1 = 0.6917) was 24.72 ± 1 mPa·s, the viscosity (293.15 K, x1 = 0.798) was 29.72 ± 1.2 mPa·s and the viscosity (293.15 K, x1 = 0.9002) was 34.93 ± 1.4 mPa·s. The mass density (293.15 K, x1 = 0.0978) was 1144.09 ± 0.36 kg/m3, the mass density (293.15 K, x1 = 0.1979) was 1228.99 ± 0.45 kg/m3 and the mass density (293.15 K, x1 = 0.2957) was 1292.83 ± 0.51 kg/m3. It also gave a mass density (293.15 K, x1 = 0.395) of 1344.49 ± 0.56 kg/m3, a mass density (293.15 K, x1 = 0.493) of 1386.31 ± 0.59 kg/m3 and a mass density (293.15 K, x1 = 0.5893) of 1420.55 ± 0.61 kg/m3. The mass density (293.15 K, x1 = 0.6917) was 1451.44 ± 0.63 kg/m3, the mass density (293.15 K, x1 = 0.798) was 1478.94 ± 0.65 kg/m3 and the mass density (293.15 K, x1 = 0.9002) was 1502.24 ± 0.67 kg/m3. For the same compound, the viscosity (298.15 K, x1 = 0.0978) was 3.026 ± 0.12 mPa·s, the viscosity (298.15 K, x1 = 0.1979) was 4.943 ± 0.2 mPa·s and the viscosity (298.15 K, x1 = 0.2957) was 7.604 ± 0.31 mPa·s. It also gave a viscosity (298.15 K, x1 = 0.395) of 10.45 ± 0.43 mPa·s, a viscosity (298.15 K, x1 = 0.493) of 13.6 ± 0.56 mPa·s and a viscosity (298.15 K, x1 = 0.5893) of 17.07 ± 0.7 mPa·s. The viscosity (298.15 K, x1 = 0.6917) was 20.87 ± 0.86 mPa·s, the viscosity (298.15 K, x1 = 0.798) was 24.7 ± 1 mPa·s and the viscosity (298.15 K, x1 = 0.9002) was 28.7 ± 1.2 mPa·s. The mass density (298.15 K, x1 = 0.0978) was 1139.45 ± 0.35 kg/m3, the mass density (298.15 K, x1 = 0.1979) was 1224.19 ± 0.44 kg/m3 and the mass density (298.15 K, x1 = 0.2957) was 1287.87 ± 0.5 kg/m3. The mass density (298.15 K, x1 = 0.395) was 1339.44 ± 0.55 kg/m3, the mass density (298.15 K, x1 = 0.493) was 1381.19 ± 0.59 kg/m3 and the mass density (298.15 K, x1 = 0.5893) was 1415.41 ± 0.6 kg/m3. It also gave a mass density (298.15 K, x1 = 0.6917) of 1446.29 ± 0.62 kg/m3, a mass density (298.15 K, x1 = 0.798) of 1473.78 ± 0.65 kg/m3 and a mass density (298.15 K, x1 = 0.9002) of 1497.09 ± 0.67 kg/m3. It also gave a viscosity (303.15 K, x1 = 0.0978) of 2.754 ± 0.11 mPa·s, a viscosity (303.15 K, x1 = 0.1979) of 4.457 ± 0.18 mPa·s and a viscosity (303.15 K, x1 = 0.2957) of 6.749 ± 0.28 mPa·s. The viscosity (303.15 K, x1 = 0.395) was 9.159 ± 0.37 mPa·s, the viscosity (303.15 K, x1 = 0.493) was 11.82 ± 0.48 mPa·s and the viscosity (303.15 K, x1 = 0.5893) was 14.7 ± 0.6 mPa·s. The viscosity (303.15 K, x1 = 0.6917) was 17.85 ± 0.73 mPa·s, the viscosity (303.15 K, x1 = 0.798) was 21.05 ± 0.86 mPa·s and the viscosity (303.15 K, x1 = 0.9002) was 24.29 ± 1 mPa·s. The mass density (303.15 K, x1 = 0.0978) was 1134.72 ± 0.35 kg/m3, the mass density (303.15 K, x1 = 0.1979) was 1219.33 ± 0.44 kg/m3 and the mass density (303.15 K, x1 = 0.2957) was 1282.91 ± 0.5 kg/m3. The mass density (303.15 K, x1 = 0.395) was 1334.42 ± 0.55 kg/m3, the mass density (303.15 K, x1 = 0.493) was 1376.09 ± 0.58 kg/m3 and the mass density (303.15 K, x1 = 0.5893) was 1410.27 ± 0.6 kg/m3. It also gave a mass density (303.15 K, x1 = 0.6917) of 1441.15 ± 0.62 kg/m3, a mass density (303.15 K, x1 = 0.798) of 1468.63 ± 0.64 kg/m3 and a mass density (303.15 K, x1 = 0.9002) of 1491.96 ± 0.66 kg/m3. It also gave a viscosity (308.15 K, x1 = 0.0978) of 2.519 ± 0.1 mPa·s, a viscosity (308.15 K, x1 = 0.1979) of 4.028 ± 0.16 mPa·s and a viscosity (308.15 K, x1 = 0.2957) of 6.033 ± 0.25 mPa·s. It also gave a viscosity (308.15 K, x1 = 0.395) of 8.092 ± 0.33 mPa·s, a viscosity (308.15 K, x1 = 0.493) of 10.37 ± 0.42 mPa·s and a viscosity (308.15 K, x1 = 0.5893) of 12.81 ± 0.52 mPa·s. For the same compound, the viscosity (308.15 K, x1 = 0.6917) was 15.44 ± 0.63 mPa·s, the viscosity (308.15 K, x1 = 0.798) was 18.24 ± 0.75 mPa·s and the viscosity (308.15 K, x1 = 0.9002) was 20.83 ± 0.85 mPa·s. It also gave a mass density (308.15 K, x1 = 0.0978) of 1130.03 ± 0.34 kg/m3, a mass density (308.15 K, x1 = 0.1979) of 1214.47 ± 0.43 kg/m3 and a mass density (308.15 K, x1 = 0.2957) of 1277.97 ± 0.49 kg/m3. The mass density (308.15 K, x1 = 0.395) was 1329.38 ± 0.54 kg/m3, the mass density (308.15 K, x1 = 0.493) was 1371 ± 0.58 kg/m3 and the mass density (308.15 K, x1 = 0.5893) was 1405.15 ± 0.59 kg/m3. It also gave a mass density (308.15 K, x1 = 0.6917) of 1436.01 ± 0.61 kg/m3, a mass density (308.15 K, x1 = 0.798) of 1463.48 ± 0.64 kg/m3 and a mass density (308.15 K, x1 = 0.9002) of 1486.83 ± 0.66 kg/m3. For the same compound, the viscosity (313.15 K, x1 = 0.0978) was 2.314 ± 0.094 mPa·s, the viscosity (313.15 K, x1 = 0.1979) was 3.647 ± 0.15 mPa·s and the viscosity (313.15 K, x1 = 0.2957) was 5.43 ± 0.22 mPa·s. For the same compound, the viscosity (313.15 K, x1 = 0.395) was 7.19 ± 0.29 mPa·s, the viscosity (313.15 K, x1 = 0.493) was 9.174 ± 0.38 mPa·s and the viscosity (313.15 K, x1 = 0.5893) was 11.26 ± 0.46 mPa·s. The viscosity (313.15 K, x1 = 0.6917) was 13.44 ± 0.55 mPa·s, the viscosity (313.15 K, x1 = 0.798) was 15.76 ± 0.64 mPa·s and the viscosity (313.15 K, x1 = 0.9002) was 18.12 ± 0.74 mPa·s. The mass density (313.15 K, x1 = 0.0978) was 1125.31 ± 0.34 kg/m3, the mass density (313.15 K, x1 = 0.1979) was 1209.6 ± 0.43 kg/m3 and the mass density (313.15 K, x1 = 0.2957) was 1272.99 ± 0.49 kg/m3. For the same compound, the mass density (313.15 K, x1 = 0.395) was 1324.28 ± 0.54 kg/m3, the mass density (313.15 K, x1 = 0.493) was 1365.88 ± 0.58 kg/m3 and the mass density (313.15 K, x1 = 0.5893) was 1399.96 ± 0.59 kg/m3. It also gave a mass density (313.15 K, x1 = 0.6917) of 1430.83 ± 0.61 kg/m3, a mass density (313.15 K, x1 = 0.798) of 1458.28 ± 0.63 kg/m3 and a mass density (313.15 K, x1 = 0.9002) of 1481.67 ± 0.65 kg/m3. The viscosity (318.15 K, x1 = 0.0978) was 2.13 ± 0.087 mPa·s, the viscosity (318.15 K, x1 = 0.1979) was 3.325 ± 0.14 mPa·s and the viscosity (318.15 K, x1 = 0.2957) was 4.916 ± 0.2 mPa·s. For the same compound, the viscosity (318.15 K, x1 = 0.395) was 6.44 ± 0.26 mPa·s, the viscosity (318.15 K, x1 = 0.493) was 8.18 ± 0.33 mPa·s and the viscosity (318.15 K, x1 = 0.5893) was 9.989 ± 0.41 mPa·s. For the same compound, the viscosity (318.15 K, x1 = 0.6917) was 11.83 ± 0.48 mPa·s, the viscosity (318.15 K, x1 = 0.798) was 13.78 ± 0.56 mPa·s and the viscosity (318.15 K, x1 = 0.9002) was 15.79 ± 0.65 mPa·s. The mass density (318.15 K, x1 = 0.0978) was 1120.61 ± 0.34 kg/m3, the mass density (318.15 K, x1 = 0.1979) was 1204.73 ± 0.42 kg/m3 and the mass density (318.15 K, x1 = 0.2957) was 1268 ± 0.48 kg/m3. It also gave a mass density (318.15 K, x1 = 0.395) of 1319.23 ± 0.53 kg/m3, a mass density (318.15 K, x1 = 0.493) of 1360.77 ± 0.57 kg/m3 and a mass density (318.15 K, x1 = 0.5893) of 1394.81 ± 0.58 kg/m3. For the same compound, the mass density (318.15 K, x1 = 0.6917) was 1425.65 ± 0.6 kg/m3, the mass density (318.15 K, x1 = 0.798) was 1453.09 ± 0.63 kg/m3 and the mass density (318.15 K, x1 = 0.9002) was 1476.54 ± 0.65 kg/m3. The viscosity (323.15 K, x1 = 0.0978) was 1.98 ± 0.081 mPa·s, the viscosity (323.15 K, x1 = 0.1979) was 3.079 ± 0.12 mPa·s and the viscosity (323.15 K, x1 = 0.2957) was 4.481 ± 0.18 mPa·s. The viscosity (323.15 K, x1 = 0.395) was 5.816 ± 0.24 mPa·s, the viscosity (323.15 K, x1 = 0.493) was 7.344 ± 0.3 mPa·s and the viscosity (323.15 K, x1 = 0.5893) was 8.911 ± 0.36 mPa·s. For the same compound, the viscosity (323.15 K, x1 = 0.6917) was 10.51 ± 0.43 mPa·s, the viscosity (323.15 K, x1 = 0.798) was 12.31 ± 0.5 mPa·s and the viscosity (323.15 K, x1 = 0.9002) was 13.95 ± 0.57 mPa·s. It also gave a mass density (323.15 K, x1 = 0.0978) of 1115.91 ± 0.33 kg/m3, a mass density (323.15 K, x1 = 0.1979) of 1199.83 ± 0.42 kg/m3 and a mass density (323.15 K, x1 = 0.2957) of 1262.96 ± 0.48 kg/m3. The mass density (323.15 K, x1 = 0.395) was 1314.12 ± 0.53 kg/m3, the mass density (323.15 K, x1 = 0.493) was 1355.62 ± 0.57 kg/m3 and the mass density (323.15 K, x1 = 0.5893) was 1389.73 ± 0.58 kg/m3. The mass density (323.15 K, x1 = 0.6917) was 1420.58 ± 0.6 kg/m3, the mass density (323.15 K, x1 = 0.798) was 1448.03 ± 0.62 kg/m3 and the mass density (323.15 K, x1 = 0.9002) was 1471.41 ± 0.64 kg/m3.
